Data on eight molecules can be found in patent US20070053866A1, “IN-CAN AND DRY COATING ANTIMICROBIAL COMPOSITIONS HAVING HYDROXY ANALOGS OF METHIONINE AND DERIVATIVES” (NOVUS INTERNATIONAL INC., priority 2005, published 2007).

For experiment [1], the system named is Pseudomonas aeruginosa ATCC 10145 and Enterobacter aerogenes ATCC 13048. Kind of experiment: In-can paint preservation: bacterial resistance rating of inoculated water borne paint. Also noted: key: 0: no bacterial recovery; trace of contamination (1 to 9 colonies); 2: light contamination (10 to 99 colonies); 3: moderate contamination (>100 distinct colonies); 4: heavy contamination (continuous smear of growth). It counts as cell-based. The method, then: Paint preservatives listed in the tables below were added at the listed concentrations to water borne paint formulations. BIOX-ASL contains 35 wt. % of 2-hydroxy-4-methylthio butanoic acid (88%), 45 wt. % of formic acid, 10 wt. % phosphoric acid and 10 wt. % lactic acid; BIOX-AWD contains 40 wt. % of 2-hydroxy-4-methylthio butanoic acid, 40 wt. % of formic acid and 20 wt. % propionic acid; BIOX-ASDA contains 36.4 wt. % of calcium bis(2-hydroxy-4-methylthiobuanoate), 41.9 wt. % of fumaric acid, 20 wt. % of benzoic acid, 0.9 wt. % flow aid and 0.73 wt. % other additives; HTA and BIOBAN BP30 are commercially available; BIOX-Z is a HMTBA-Zn metal chelate, and BIOX-C is a HMTBA-Cu metal chelate.
The paints were inoculated with Pseudomonas aeruginosaATCC 10145 and Enterobacter aerogenes ATCC 13048 at a level of 0.1% inoculum, and paints were then sampled during the next seven days to determine the number of bacterial colonies surviving in the paint. The efficacy of the added antimicrobial agents were given a numeric rating based on the following system: (0) for no bacterial recovery, (1) for trace of contamination (1 to 9 colonies), (2) for light contamination (10 to 99 colonies), (3) for moderate contamination (>100 distinct colonies) and (4) for heavy contamination (continuous smear of growth).
The paints were then inoculated at a level of 1.0% inoculum and were again sampled during the next seven days to determine the number of bacterial colonies surviving in the paint. These ratings were also plotted versus day after inoculation for each concentration of BIOX-ASL, BIOX-AWD, BIOX-ASDA, and BIOX-C, and are presented in FIGS. 1-4. The minimum inhibitory concentration (MIC) of each BIOX biocide was much lower after one week than those of commercially available products, as shown in FIG. 5.

For experiment [2], the system named is Penicillium and Aspergilus sp. The experiment can be described thus: Dry-film alkyd paint mold and mildew resistance in environmental chamber (ASTM D 3273-94, ASTM D 3274-95). It counts as cell-based. The conditions noted are these: scale of 1 to 10, 10 being totally free of growth; for ASTM RATING Mean: One month in the environmental chamber, added at 1% to alkyd paint; for ASTM Rating: Three months of continuous alkyd paint testing in the environmental chamber. The method, then:
Accelerated testing of biocides in paints is conducted using environmental chambers maintained at constant high humidity (85-88% relative humidity) and temperature (30-33° C.). The chamber was primed with spores of Penicillium and Aspergilus sp. to accelerate the formation of fungal organisms. Wood panels are coated with the experimental paints and placed inside the chamber for a period of 4-12 weeks. The relative resistance of the paint to the mold and mildew inside the chamber was evaluated subjectively from a scale of 1 to 10, with 10 being totally free of growth. This test is described in more detail in ASTM D 3273-94 and ASTM D 3274-95.
Paint preservatives listed in table 5 below were added at 1% to alkyd paint formulations. HMTBA-Zn is a zinc metal chelate as described above; HMTBA-Cu is a copper metal chelate as described above; HMTBA-Mn is a manganese metal chelate as described above; BIOX-S is 6-ethoxy-1,2-dihydro-2,2,4-trimethylquinoline; BIOX-A is 88 wt. % HMTBA; BIOX-ASL contains 35 wt. % of 2-hydroxy-4-methylthio butanoic acid (88%), 45 wt. % of formic acid, 10 wt. % phosphoric acid and 10 wt. % lactic acid; and BIOX-EZ/7030 contains 70 wt. % of 6-ethoxy-1,2-dihydro-2,2,4-trimethylquinoline and 30 wt. % of HMTBA-Zn metal chelate. Troy663 is a positive control.

[3] abbreviates: Table 1, week 1, 0.1% inoculum, 5 ppm in water borne paint.
Setting [4] is: Table 1, week 1, 0.1% inoculum, 25 ppm in water borne paint.
[5] abbreviates: Table 2, week 2, 1.0% inoculum, 5 ppm in water borne paint.
Setting [6] is: Table 2, week 2, 1.0% inoculum, 25 ppm in water borne paint.
The mark [7] stands for this setting: Table 3, Week 1: 0.1% Inoculum, sample at 1.0%.
[8] abbreviates: Table 3, Week 2: 1.0% Inoculum, sample at 1.0%.
[9] abbreviates: Table 4, Week 1: 0.1% Inoculum, sample at 1.0% (Bioban BP30: concentration not given).
Where [10] appears, read: Table 4, Week 2: 1.0% Inoculum, sample at 1.0%.

SMILES strings stand for the structures.

Consider `CSCCC(O)C(=O)[O-].CSCCC(O)C(=O)[O-].[Cu+2]` (stereo not drawn) [BIOX-C, copper 2-hydroxy-4-methylthiobutanoate chelate], for which, in experiment [1] (setting [3]), the “Bacteria Resistance Rating, Before Inoculation” value was determined as 0; the “Bacteria Resistance Rating, Day 1” value was found to be 0; the “Bacteria Resistance Rating, Day 2” value is on record as 0; the “Bacteria Resistance Rating, Day 5” value worked out at 0. In addition, in experiment [1] (setting [3]), the “Bacteria Resistance Rating, Day 7” value is on record as 0 and the “Bacteria Resistance Rating, Initial Inoculation” value came to 4. Moreover, in experiment [1] (setting [4]), the “Bacteria Resistance Rating, Before Inoculation” value is listed as 0; the “Bacteria Resistance Rating, Day 1” value is on record as 0; the “Bacteria Resistance Rating, Day 2” value is on record as 0; the “Bacteria Resistance Rating, Day 5” value is listed as 0. Also, in experiment [1] (setting [4]), the “Bacteria Resistance Rating, Day 7” value worked out at 0 and the “Bacteria Resistance Rating, Initial Inoculation” value is given as 4. For the same molecule, in experiment [1] (setting [5]), the “Bacteria Resistance Rating, Before Inoculation” value is 0; the “Bacteria Resistance Rating, Day 1” value was 3 (moderate contamination (>100 distinct colonies)); the “Bacteria Resistance Rating, Day 2” value is recorded as 1 (trace of contamination (1 to 9 colonies)); the “Bacteria Resistance Rating, Day 5” value was 0. Moreover, in experiment [1] (setting [5]), the “Bacteria Resistance Rating, Day 7” value is recorded as 0 and the “Bacteria Resistance Rating, Initial Inoculation” value is reported as 4. Moreover, in experiment [1] (setting [6]), the “Bacteria Resistance Rating, Before Inoculation” value is recorded as 0; the “Bacteria Resistance Rating, Day 1” value was 3 (moderate contamination (>100 distinct colonies)); the “Bacteria Resistance Rating, Day 2” value worked out at 0; the “Bacteria Resistance Rating, Day 5” value came out at 0. For the same molecule, in experiment [1] (setting [6]), the “Bacteria Resistance Rating, Day 7” value amounted to 0 and the “Bacteria Resistance Rating, Initial Inoculation” value is reported as 4. In addition, in experiment [1] (setting [7]), the “Bacterial Resistance Rating, Day 1” value is reported as 2 (light contamination (10 to 99 colonies)); the “Bacterial Resistance Rating, Day 2” value is listed as 0; the “Bacterial Resistance Rating, Day 5” value is recorded as 0; the “Bacterial Resistance Rating, Day 7” value is 0. In addition, the “Bacterial Resistance Rating, Initial” value in experiment [1] (setting [7]) was 4. Also, in experiment [1] (setting [8]), the “Bacterial Resistance Rating, Day 1” value was determined as 0; the “Bacterial Resistance Rating, Day 2” value is 0; the “Bacterial Resistance Rating, Day 5” value is on record as 0; the “Bacterial Resistance Rating, Day 7” value was found to be 0. For the same molecule, in experiment [1] (setting [8]), the “Bacterial Resistance Rating, Initial” value is reported as 4. Moreover, in experiment [1] (setting [9]), the “Bacterial Resistance Rating, Day 1” value is 0; the “Bacterial Resistance Rating, Day 2” value is 0; the “Bacterial Resistance Rating, Day 5” value is 0; the “Bacterial Resistance Rating, Day 7” value is 0. Further, in experiment [1] (setting [9]), the “Bacterial Resistance Rating, Initial” value amounted to 4. Further, in experiment [1] (setting [10]), the “Bacterial Resistance Rating, Day 1” value was determined as 0; the “Bacterial Resistance Rating, Day 2” value was found to be 0; the “Bacterial Resistance Rating, Day 5” value came out at 0; the “Bacterial Resistance Rating, Initial” value is 4. In experiment [2], the “ASTM RATING Mean” value was determined as 9.3 and the “ASTM Rating” value stood at 9.0 ± 0.6.

Consider `C1N2CN3CN1CN(C2)C3` [HTA, reference compound], for which, in experiment [1] (setting [7]), the “Bacterial Resistance Rating, Day 1” value is on record as 4; the “Bacterial Resistance Rating, Day 2” value came to 4; the “Bacterial Resistance Rating, Day 5” value was found to be 4; the “Bacterial Resistance Rating, Day 7” value was 4. Also, the “Bacterial Resistance Rating, Initial” value in experiment [1] (setting [7]) was determined as 4.

In the case of `CSCCC(O)C(=O)O` (stereo not drawn) [BIOX-A, 2-hydroxy-4(methylthio)butanoic acid], the “ASTM RATING Mean” value in experiment [2] is given as 9.2.

With `[Cu+2].[O-]n1ccccc1=S.[O-]n1ccccc1=S` [COPPER OMADINE, reference compound], the “ASTM Rating” value in experiment [2] worked out at 9.2 ± 0.4.

`CCOc1ccc2c(c1)C(C)=CC(C)(C)N2` [BIOX-S, 6-ethoxy-1,2-dihydro-2,2,4-trimethylquinoline]: the “ASTM RATING Mean” value in experiment [2] was found to be 9.2.

For the molecule `c1cc[n+]2c(c1)[S][Zn-2]1([O]2)[O][n+]2ccccc2[S]1` [ZINC-OMADINE, reference compound], the “ASTM Rating” value in experiment [2] was found to be 8.3 ± 0.8.

As for `CSCCC(O)C(=O)[O-].CSCCC(O)C(=O)[O-].[Zn+2]` (stereo not drawn) [BIOX-Z], in experiment [1] (setting [7]), the “Bacterial Resistance Rating, Day 1” value came to 0; the “Bacterial Resistance Rating, Day 2” value turned out to be 0; the “Bacterial Resistance Rating, Day 5” value amounted to 0; the “Bacterial Resistance Rating, Day 7” value turned out to be 0. Further, the “Bacterial Resistance Rating, Initial” value in experiment [1] (setting [7]) stood at 4. Also, in experiment [1] (setting [8]), the “Bacterial Resistance Rating, Day 1” value was 1 (trace of contamination (1 to 9 colonies)); the “Bacterial Resistance Rating, Day 2” value is listed as 0; the “Bacterial Resistance Rating, Day 5” value worked out at 0; the “Bacterial Resistance Rating, Day 7” value stood at 0. Further, the “Bacterial Resistance Rating, Initial” value in experiment [1] (setting [8]) amounted to 4. In addition, in experiment [1] (setting [9]), the “Bacterial Resistance Rating, Day 1” value is reported as 1 (trace of contamination (1 to 9 colonies)); the “Bacterial Resistance Rating, Day 2” value was determined as 0; the “Bacterial Resistance Rating, Day 5” value was found to be 0; the “Bacterial Resistance Rating, Day 7” value was determined as 0. For the same molecule, in experiment [1] (setting [9]), the “Bacterial Resistance Rating, Initial” value came to 4. In addition, in experiment [1] (setting [10]), the “Bacterial Resistance Rating, Day 1” value is reported as 1 (trace of contamination (1 to 9 colonies)); the “Bacterial Resistance Rating, Day 2” value is on record as 0; the “Bacterial Resistance Rating, Day 5” value is 0; the “Bacterial Resistance Rating, Initial” value turned out to be 4. In experiment [2], the “ASTM RATING Mean” value came out at 8.7.

Consider `CSCCC(O)C(=O)[O-].CSCCC(O)C(=O)[O-].[Mn+2]` (stereo not drawn) [HMTBA-Mn], for which the “ASTM RATING Mean” value in experiment [2] is 7.8.
